Laboratory results taken from patent publication US20190079094A1, “SUBCELLULAR LOCALIZATION OF TARGET ANALYTES” (Beckman Coulter, Inc., priority 2016, published 2019).
“Also recorded” adds a separate entry of the source.

How the values were obtained:
Type in all cases: cell-based
granulocytes = experiment: Detergent titration for differential permeabilization of granulocytes (HSP60, Lamin A/C); conditions: detergent alone
From the text: FIG. 6. Titration of Detergents In Order to Identify the Optimal Concentrations for Cytoplasmic vs. Nuclear Membrane Permeabilization of Granulocytes. […] As in FIG. 5, HSP60 and Lamin A/C were used to indicate the degree of mitochondrial inner membrane and nuclear membrane permeabilization, respectively.
For Peripheral Blood Mononuclear Cells (PBMCs), cell lines, and other purified cells, Buffer 1 and Buffer 2 have different compositions than for whole blood; however, the protocol is otherwise the same. Most cell lines perform similar to PBMCs. In addition, whole-blood granulocytes may require a different buffer combination to appropriately permeabilize their cytoplasmic vs. nuclear compartments.
In some cases, using the defined buffers for the Subcellular Localization Kit may not effectively and reproducibly permeabilize granulocytes as they do mononuclear cells, and can be better targeted with a different detergent combination. […] Tween 20 at a concentration >0.5% can be seen to permeabilized the cytoplasmic+mitochondrial membranes without permeabilizing the nuclear membrane, while Digitonin and TX-100 alone at lower concentrations will permeabilize the nuclear or mitochondrial membranes, respectively. Ultimately, differential permeabilization of granulocytes can be more complex than for mononuclear cells depending on the target organelles.

[1] = tested on: NF-κB and AKT signaling in whole-blood monocytes and T cells; experiment: LPS stimulation of whole blood, cytoplasmic vs. nuclear signaling; conditions: 1 μg/mL LPS
Procedure: FIGS. 7A and 7B. Stimulation of Monocytes with 1 μg/mL LPS. A) Comparison of the scatter profiles between Buffer 1 and Buffer 2 lysis, as well as the gating workflow. B) Cytoplasmic vs. nuclear signaling in whole-blood monocytes. C) Cytoplasmic vs. nuclear signaling in T cells.
(§1) The protocol for processing whole blood samples is as follows (see FIG. 1 for a workflow): 1) The sample is first mixed 1:1 with fixative, vortexed, and then incubated for 10 minutes. An extra control tube is included for each buffer, which is stained with all antibodies except for the specific signaling or target antibodies being tested in order to subtract the background signal. […] 6) Once stained, the samples are again washed 2× with PBS or wash buffer, resuspended in PBS+0.5% PFA, and read on a flow cytometer.
(§2) After data acquisition, the samples are gated, compensated, and analyzed as standard flow cytometry samples. […] For example, if staining for the subcellular distribution of FoxP3, where the Background MFIs for the Cytoplasm and Whole Cell are 1.5 and the raw FoxP3 signal is 3.5 and 31.5 for the Cytoplasm and Whole Cell, respectively, then the Cytoplasmic MFI would be calculated to be 2 (i.e., 3.5 (raw)−1.5 (background)=2) and the Nuclear MFI would be calculated to be 28 (i.e., 31.5 (raw)−1.5 (background)−2 (Cytoplasm)=28). […]

[2] = tested on: CREB, RelA and ERK phosphorylation in monocytes; experiment: Stimulation of monocytes with LPS or GM-CSF, cytoplasmic vs. nuclear signaling; conditions: primarily cytoplasm, 1 μg/mL LPS or 100 ng/mL GM-CSF
Procedure: FIG. 8. Differential Signaling in Monocytes Induced by 1 μg/mL LPS vs. 100 ng/mL GM-CSF. A) Both LPS and GM-CSF induced CREB phosphorylation at S133, accumulating maximally in the nucleus by 10 min. B) LPS stimulation induced RelA phosphorylation maximally by 10 min in both the cytoplasm and nucleus, though predominantly in the nucleus. C) Both LPS and GM-CSF stimulated ERK phosphorylation primarily in the cytoplasm, maximally by 5 min for GM-CSF and 10 min for LPS.
as §1, with “signal. The background control may also be labeled with isotype-control antibodies for more precise determination of non-specific binding, especially in cells that have characteristically high non-specific binding, such as neutrophils. For indirect antibody labeling, omitting the primary antibody, but still utilizing the secondary antibody, is a common method for determining the degree of non-specific background signal attributable to the secondary antibody, which is typically higher than the direct conjugates of target antibodies.” for “signal.”
as §2

| Compound | concentration permeabilizing the cytoplasmic+mitochondrial membranes without the nuclear membrane (granulocytes) [%] | signaling induced in T cells [1] | time of peak ERK phosphorylation (S202/T204) [2] [min] |
| --- | --- | --- | --- |
| CCCCCCCCCCCC(=O)OCCOCCOCCOCCOCCOCCOCCOCCOCCOCCOCCOCCOCCOCCOCCOCCOCCOCCOCCOCCOCC(OCCOCCOCCOCCOCCOCCOCCOCCOCCOCCOCCOCCOCCOCCOCCOCCOCCOCCOCCOCCO)C1OCC(OCCOCCOCCOCCOCCOCCOCCOCCOCCOCCOCCOCCOCCOCCOCCOCCOCCOCCOCCOCCO)C1OCCOCCOCCOCCOCCOCCOCCOCCOCCOCCOCCOCCOCCOCCOCCOCCOCCOCCOCCOCCO (stereo not drawn) [Tween 20, Polysorbate 20] | > 0.5 |  |  |
| lipopolysaccharide [LPS] |  | did not stimulate T cells; also recorded: lack of any signaling induced in T cells | ≤ 10 |
